Results reported in paper PMC11173897, “Computational Docking as a Tool in Guiding the Drug Design of Rutaecarpine Derivatives as Potential SARS-CoV-2 Inhibitors” (Molecules, 2024).

What was measured:
[1] = tested on: wild-type SARS-CoV-2 pseudovirus; assay: microbe, parasite or virus in culture; type: cell-based; conditions: for IC50: Severe acute respiratory syndrome-related coronavirus, HEK-293T, n = 5, read-out: IC50, blocking wild-type viral entry
[2] = tested on: omicron SARS-CoV-2 pseudovirus; assay: microbe, parasite or virus in culture; type: cell-based; conditions: Severe acute respiratory syndrome-related coronavirus, HEK-293T; n = 5; read-out: IC50, entry of the omicron pseudovirus

Row | Structure (SMILES) | IC50 [1] [nM] | IC50 [2] [nM] | maximal inhibition compared with RU [1]
1 | O=c1c2ccccc2nc2n1CCc1c-2[nH]c2ccccc12 [RU, rutaecarpine] | 1340 | 1010 | 
2 | O=c1c2ccc(Nc3ccccc3)cc2nc2n1CCc1c-2[nH]c2ccccc12 [RU-75] | 460 | 320 | almost double that of RU
3 | O=C1c2ccc(Nc3ccccc3)cc2NC2=NCCc3c2n1c1ccccc31 [RU-184] | 210 | 260 | almost double that of RU
